Laboratory results reported in patent publication US20060189546A1, “Compounds for treating autoimmune and demyelinating diseases” (priority 2005, published 2006).

Assays:
[1] = tested on: Experimental Autoimmune Encephalomyelitis (EAE); experiment: Chronic EAE, two doses 72 hours apart (Example 4); type: in vivo, guinea pig; conditions: 20 mg/kg i.p., 2 doses 72 hours apart
Procedure: In order to test the possibility that a more frequent dosing schedule would offer a more rapid resolution of disease symptoms, an experiment was performed to match the dosing cycle to the observed periodicity of response. Accordingly, the method of Experiment 2 was applied to a cohort of animals and controls, which were allowed to reach the chronic phase of disease at 30 days post immunization. Six animals with a disease score of 1 were selected and half were treated with 20 mg/kg Symadex™ administered intraperitoneally. Two dose were given 72 hours apart to 3 animals. Three animals served as vehicle controls.

[2] = tested on: Experimental Autoimmune Encephalomyelitis (EAE); experiment: Chronic-progressive EAE, weekly treatment for 4 weeks (Example 2); type: in vivo, Hartley guinea pigs
Procedure: In the present experiment, female juvenile Hartley guinea pigs (225 g) were immunized with homogenized whole CNS (in saline) with an equal amount of complete Freund's Adjuvant and 10 mg added killed M. tuberculosis. The animals (>95%) show clinical signs starting on day 7 post immunization. An acute event of varying severity occurs between day 7 and day 20 followed by a continuous accumulation of clinical abnormality with hind limb paralysis, fecal impaction and incontinence. […] These clinical features indicate inflammation-induced lumbar spinal cord demyelination.
In these experiments, the immunized animals were nursed until day 40 or day 52 and then treated with 8 mg/kg and 16 mg/kg Symadex™ (intra cardiac), or 20 mg/kg and 40 mg/kg Symadex™ (i.p.) once a week for 4 weeks. Controls were given vehicle. Clinical signs were scored daily and the weights recorded. At the completion of the treatment period, the brain and spinal cord were dissected, formalin fixed and blocked for routine pathological examination of meningeal inflammation, perivascular infiltration (cuffing), parenchymal myelitis and demyelination by a blinded observer using hematoxylin-eosin and solochrome R cyanin stained sections.
Untreated, chronic EAE animals (n=5) were sacrificed on day 40, as well as non-EAE controls (n=5). Following each 10-day treatment interval, five animals from each group were sacrificed (0.25 ml sodium pentobarbital), blood samples were collected for FACS analysis (see below), and the brain and spinal cord dissected and sectioned. Three spinal sections were used, corresponding to lumbar, thoracic and cervical regions of the cord. The brain was cut into five transverse sections; the first three proximal sections were combined in one block, and the last two distal sections in another. Tissues were fixed in 10% formalin and embedded in paraffin. Five micrometer sections were stained with hematoxylin-eosin (H-E) or solochrome-R-cyanin (SCR) and evaluated by a blinded observer in each of the four categories: meningeal inflammation, perivascular infiltration, encephalitis or myelitis and demyelination (Table 2). The combined pathological score represents the total score (out of a potential 20) from all five CNS sections in each animal.
To quantify the abnormalities observed in the spinal cord, sections stained with H-E were divided into 12 representative pie-shaped areas. In each area, the number of cells within a 0.12-mm^2 field of view was counted using Sigma Scan Pro image analysis software (SPSS), and the combined mean number of cell in all 12 areas was calculated for the whole spinal cord (36 fields of view per animal). Note that as all cell nuclei were counted, the number of cells may include neurons and glial cells in addition to infiltrates.

IL-10 = experiment: Mediator release, IL-10 (Con A-stimulated PBML, sandwich ELISA); type: cell-based; conditions: Homo sapiens, IL-10 release
Procedure: In this experiment, test compound and/or vehicle were preincubated with human peripheral blood mononuclear leukocyte (PBML, 1×10^6/ml) in RPMI buffer pH 7.4 for 2 hours. Concanavalin A (Con A, 20 μg/ml) was then added to stimulate the cells overnight in 5% CO2 at 37° C. IL-4 and IL-10 cytokine levels in the conditioned medium were then quantified using a sandwich ELISA kit. Compounds were screened at 10, 1, 0.1, 0.01 and 0.001 μM.

T-lymphocyte cells = experiment: Cell Proliferation, T-Cell + Con A ([3H]thymidine incorporation); type: cell-based, balb/c mice; conditions: Mus musculus
Procedure: T-lymphocyte cells isolated from thymus of balb/c mice weighing 17±1 g were used. Test compound and/or vehicle is incubated with the cells (4×10^6/ml) in the presence of 3 μg/mL Concanavalin A (Con A) in AIM-V medium pH 7.4 at 37° C. for 24 hours. [^3H]Thymidine (120 nM) was then added for an additional overnight incubation period. Thymidine incorporation was assessed by liquid scintillation counting.
(§1) Test compound-induced suppression of cell proliferation by 50 percent or more (≧50%) relative to vehicle control response indicates significant inhibitory activity.

B-lymphocyte cells = experiment: Cell Proliferation, B-Cell + LPS ([3H]thymidine incorporation); type: cell-based, balb/c mice; conditions: Mus musculus
Procedure: B-lymphocyte cells isolated from the spleen of balb/c mice weighing 17±1 g were used. Test compound and/or vehicle were incubated with the cells (1.5×10^6/ml) in the presence of 10 μg/ml lipopolysaccharide (LPS) in AIM-V medium pH 7.4 at 37° C. for 24 hours. [^3H]Thymidine (120 nM) was then added for an additional overnight incubation period. Thymidine incorporation was assessed by liquid scintillation counting.
as §1

HT29 cell line = experiment: GI50 concentration in HT29 cells; type: cell-based; conditions: Homo sapiens, HT-29
[3] = tested on: Experimental Autoimmune Encephalomyelitis (EAE); experiment: Acute EAE, daily dosing for 15 days (Example 5); type: in vivo, guinea pigs
Procedure: Accordingly, three randomized cohorts of guinea pigs with EAE induced by the method of Example 2, were treated, respectively, with 6 mg/kg of Symadex™ (full salt hydrate) and 0.35 mg/kg of mitoxantrone. Animals were treated daily, by intraperitoneal injection, for 15 days, starting on day 7 post immunization. Controls were treated with vehicle. We reasoned that 15 consecutive, 6 mg/kg doses of Symadex™ would represent a level of drug exposure that would be commensurate with the “20 mg/kg every 72 hours” regimen in Example 4 and consistent with a mid level exposure between the 20 mg/kg and the 40 mg/kg schedule given weekly, in Example 2. The mitoxantrone dose was selected to reflect a typical high dose given to rats or mice by daily dosing in the prior art, but allometrically scaled to the guinea pig.

HCT116 cell line = experiment: GI50 concentration in HCT116 cells; type: cell-based; conditions: Homo sapiens, HCT-116
[4] = CNS histopathology after treatment
[5] = B-cell, read-out: % Growth Inhibition
[6] = necropsy after 15 daily doses, Symadex 6 mg/kg, mitoxantrone 0.35 mg/kg

`CCN(CC)CCNc1ccc2ncn3c4ccc(O)cc4c(=O)c1c23` [Symadex™, 5-[[(diethylamino)ethyl]amino]-8-hydroxyimidazo[4,5,1-de]-acridine-6-one] was tested, and the clinical scores [1] was “reversed the progression of disease and restored baseline clinical scores with just 2 doses”, the “time to clinical recovery from start of treatment” value ([2]; 40 mg/kg i.p. once a week) was no more than 2 weeks and the “clinical progress and pathological findings” value ([2]; 20 and 40 mg/kg i.p. once a week for 4 weeks) was “profound and substantial change in the clinical progress and pathological findings”. For the same compound, the “cells in existing lesions” value [2, 4] was “profound loss of cells”, the “remyelination (myelin pallor)” value [2, 4] was “myelin pallor previously attributed to remyelination” and the “scores for meningeal inflammation and perivascular infiltration” value ([2]; treated groups vs vehicle controls, CNS histopathology) was “more severe in the treated groups than in vehicle controls”. The IC50 (IL-10) was 1200 nM, the inhibition at 0.001 µM (IL-10; 1 nM, read-out: % Growth Inhibition) was 1% and the inhibition at 0.01 µM (IL-10; 10 nM, read-out: % Growth Inhibition) was 16%. For the same compound, the inhibition at 0.1 µM (IL-10; 0.1 μM, read-out: % Growth Inhibition) was 16%, the inhibition at 1 µM (IL-10; 1 μM, read-out: % Growth Inhibition) was 39% and the inhibition at 10 µM (IL-10; 10 μM, read-out: % Growth Inhibition) was 99%. It also gave an IC50 (T-lymphocyte cells; T-Cell + Con A) of 14 nM, an inhibition at 0.001 µM (T-lymphocyte cells; T-Cell + Con A, 1 nM, read-out: % Growth Inhibition) of 10% and an inhibition at 0.01 µM (T-lymphocyte cells; T-Cell + Con A, 10 nM, read-out: % Growth Inhibition) of 44%. It also gave an inhibition at 0.1 µM (T-lymphocyte cells; T-Cell + Con A, 0.1 μM, read-out: % Growth Inhibition) of 82%, an inhibition at 1 µM (T-lymphocyte cells; read-out: % Growth Inhibition) of 103% and an inhibition at 10 µM (T-lymphocyte cells; read-out: % Growth Inhibition) of 104%. It also gave an inhibition at 1 µM (B-lymphocyte cells; [5]) of 101%, an inhibition at 10 µM (B-lymphocyte cells; [5]) of 103% and an IC50 (B-lymphocyte cells; B-Cell + LPS) of 38 nM. It also gave an inhibition at 0.001 µM (B-lymphocyte cells; B-Cell + LPS, 1 nM, read-out: % Growth Inhibition) of 0%, an inhibition at 0.01 µM (B-lymphocyte cells; B-Cell + LPS, 10 nM, read-out: % Growth Inhibition) of 38% and an inhibition at 0.1 µM (B-lymphocyte cells; B-Cell + LPS, 0.1 μM, read-out: % Growth Inhibition) of 80%. For the same compound, the GI50 (HT29 cell line) was 680 nM, the “clinical score (neurological impairment)” value ([3]; daily i.p. for 15 days from day 7, Symadex 6 mg/kg, mitoxantrone 0.35 mg/kg) was “the initial rise in neurological impairment is arrested” and the “weight gain profile vs vehicle controls, statistical significance” value ([3]; guinea pig, in vivo) was “did not show statistical significance”. The “reduction of meningeal inflammation (M) pathology score” value [3, 6] was “does not”, the “reduction of perivascular cuffing (P), myelitis (E) and demyelination (D) pathology scores” value [3, 6] was “statistically significant differences (p value<0.05) from control” and the GI50 (HCT116 cell line) was 210 nM.
